Test results as given in US20210063414A1, “METHODS FOR PREVENTING AND/OR TREATING BONE LOSS CONDITIONS BY MODULATING IRISIN” (Dana-Farber Cancer Institute, Inc., priority 2018, published 2021).

Test system: his-tag integrins
Assay: Irisin-integrin binding in presence of RGDS or control peptide, co-immunoprecipitation
Parameters: species or system human
Details: 100 nM flag-tag irisin, 5 nM his-tag integrins, 10 uM peptide, vs control RGD peptide
Protocol: 100 nM flag-tag irisin was incubated with 5 nM of indicated integrins with his-tag in the presence of RGDS peptide or its control peptide (10 uM). This was followed by immunoprecipitation using anti-his-tag agarose. Co-precipitated irisin was analyzed by immunoblot analysis with antibody against flag tag.
Certain materials and methods were used to generate the results described herein. For example, the data shown in FIG. 1A resulted from MLO-Y4 (an osteocyte-like cell line) cells treated with the indicated concentration of irisin and hydrogen peroxide for 4 hours. Cells were stained with Hoechst 33342 (ThermoFisher Scientific, catalog number H3570) and Eth-D1 (ThermoFisher Scientific, catalog number E1169) and analyzed to determine the percentage of cell death using ImageJ. […] Co-precipitated irisin was analyzed by immunoblot analysis against flag tag (Sigma Aldrich, catalog number A8592). The data shown in FIGS. 5A and 5B were generated from MLO-Y4 cells treated and analyzed as in the experiments used to generate the data shown in FIG. 2D, except that pre-treatment of 100 nM RGDS (FIG. 5A) or echistatin (R & D Systems Inc., catalog number 3202/100U) (FIG. 5B) for 10 minutes was performed before irisin treatment. […] Sclerostin mRNA level was analyzed by qPCR (FIG. 7A). […]

In the case of “RGDS peptide: classical integrin competitive inhibitory peptide, commercially available form of the RGD peptide”, the “effect on irisin binding to integrins” value is reported as “inhibited much of the irisin binding” and the “effect on irisin binding to integrins” value (listed as RGDS) is reported as “blocked”.
